Values quoted from earlier work in patent publication US7727757B2, “Methods of eliciting antiviral immune responses utilizing viral particles comprising photoinactivated reverse transcriptase” (priority 1998, dated 2010).
pIC50: −log10 of the molar value. Entries after “also recorded” stand apart in the source; their conditions may differ.

Tests used:
[1] = biological target: HIV-1 reverse transcriptase (Human immunodeficiency virus type 1 group M subtype B, UniProt P04585); conditions: for inhibition of RT (in words): prior-art statement; for pIC50: value stated without method or source, used to set the incubation concentration, read-out: IC50 (50% inhibitory concentration)
HIV = conditions: short exposure, without photoinactivation
HIV infected cells = conditions: compound provided to HIV infected cells

CCN1c2cc(N=[N+]=[N-])ccc2N(C)C(=O)c2cccnc21 [azido dipyridodiazepinona, 9-Azido-5,6-dihydro-11-ethyl-6-methyl-11H-pyrido[2,3-b][1,5]benzodiazepin-5-one]
inhibition of RT (in words) [1]: potent inhibitors of RT
pIC50 [1]: 6.80

CC(C)=CCOc1cc(NC(=S)c2ccoc2C)ccc1Cl [UC781™, N-[4-chloro-3-(3-methyl-2-butenyloxy)phenyl]-2-methyl-3-furanocarbothiamide]
HIV infectivity after exposure of isolated virus (HIV): eliminate HIV infectivity
inhibition of ERT in HIV virions (ERT in HIV virions): inhibit ERT in HIV virions
inhibition of RT (in words) [1]: potent inhibitors of RT
pIC50 [1]: 9.70
infectivity of nascent virus from HIV infected cells (HIV infected cells): production of noninfectious nascent virus; also recorded: inactivate nascent virus from HIV-infected cells
